In US20120015906A1, “USES OF BORTEZOMIB IN PREDICTING SURVIVAL IN MULTIPLE MYELOMA PATIENTS” (priority 2009, published 2012):

Tests used:
Type in all cases: in vivo, human
[1] = test system: CD138-purified plasma cells; test: Gene expression profiling of plasma cells prior to and 48 hr after bortezomib test-dose; details: for Mean log2 Expression Change / Mean log2 Expression Change, Average: 48 hr after test-dose vs baseline
Experimental: Pharmacogenomic (PG) studies were performed as part of two TT3 trials (2003-33, n=303; 2006-66, n=177), obtaining plasma cells prior to and 48 hr after a bortezomib test-dose (1.0 mg/m2), which was accomplished in 142 patients receiving 2003-33 (training set) and […] receiving 2006-66 (test set). […] A continuous risk score was calculated and an optimal cut-point for event-free survival separation determined. The independent prognostic power of the binary risk score was tested in 2006-66. Multivariate analyses (MV) were employed to determine the role of post-bortezomib risk in relationship to standard prognostic variables and 70-gene baseline risk model.
The details of Total Therapy 3 are known in the art. In brief, protocol 2003-33 enrolled 303 newly diagnosed patients with myeloma into a tandem transplantation program, employing 2 cycles each of induction chemotherapy with VTD-PACE (bortezomib, thalidomide, dexamethasone; 4-day continuous infusions of cisplatin, doxorubicine, cyclophosphamide, etoposide) prior to and after melphalan-based transplantation, followed by VTD maintenance. A pharmaco-genomic aspect of the protocol called for gene expression profiling analyses of CD138-purified plasma cells obtained prior to and 48 hr following a test-dose application of bortezomib (1.0 mg/m2). The observation of prognostic consequences of bortezomib-induced gene expression profiling alterations provided the rationale for accrual of an additional 177 patients to an extension TT3 protocol, 2006-66, in order to validate the pharmaco-genomic data generated in the 2003-33 trial. Gene expression profiling baseline data were available in 275 and 169 patients entered on 2003-33 and 2006-66, respectively, 142 and 128 of whom had paired samples at baseline and 48 hr after test-dosing.
Multiple myeloma plasma cells were purified from bone marrow aspirates prior to and 48 hr following in vivo exposure to 1.0 mg/m2 of bortezomib in 142 of 303 patients enrolled in UARK2003-33 and 128 of 177 accrued to UARK2006-66. RNA was isolated from tumor cells and run on Affymetrix U133Plus2.0 microarrays. Multiple myeloma plasma cells were isolated from heparinized bone marrow (BM) aspirates using CD138-based immunomagnetic bead selection using the Miltenyi AutoMacs device (Miltenyi, Bergisch Gladbach, Germany). Peripheral Blood mononuclear cells were obtained through Ficoll gradient centrifugation. RNA purification, cDNA synthesis, cRNA preparation, and hybridization to the Human Genome U133Plus 2.0 GeneChip microarrays (Affymetrix, Santa Clara, Calif.) were performed.
The Affymetrix U133Plus2.0 microarrays were preprocessed and normalized with MAS5.0 software. […] Each of these 1051 genes was then correlated with event-free survival in a Cox regression model and ranked the genes by p-values. In order to explore the various potential survival implications, two sets of covariates were considered in the Cox model for each gene: a) percent change at 48 hr compared to the baseline expression, and b) 48 hr expression.

proteasome genes = test: Proteasome gene expression changes after short-term exposure (test-dosing) to bortezomib, dexamethasone, thalidomide, melphalan; details: test-dosing in myeloma patients
From the text: In earlier studies, pharmacogenomics was used to identify genes altered by short-term exposure of therapy-naïve cases to thalidomide and dexamethasone. Little to no overlap was found in the genes altered by these agents with those altered by bortezomib.

proteasome proteins = test: Mass spectrometry of proteasome proteins after bortezomib; details: mass spectroscopy, protein level
From the text: Representative examples of proteasome up-regulation after bortezomib at both the RNA and protein levels are depicted.
For further validation of GEP-derived data, the effects of bortezomib on proteasome proteins was also investigated by mass spectroscopy, (FIG. 8A). Representative examples of proteasome up-regulation after bortezomib at both the RNA and protein levels are depicted in FIG. 8A-8B.

CC(C)C[C@H](NC(=O)[C@H](Cc1ccccc1)NC(=O)c1cnccn1)B(O)O [bortezomib]
Mean log2 Expression Change ([1]; ACVR1C 1552519_at): −0.17
Mean log2 Expression Change ([1]; ALDOA 238996_x_at): 0.36
Mean log2 Expression Change ([1]; ANKRD37 242548_x_at): −0.39
Mean log2 Expression Change ([1]; BIRC5 210334_x_at): −0.35
Mean log2 Expression Change ([1]; C1orf31 225638_at): 0.18
Mean log2 Expression Change ([1]; C1orf128 229856_s_at): −0.32
Mean log2 Expression Change ([1]; C9orf130 227893_at): 0.16
Mean log2 Expression Change ([1]; C14orf100 223215_s_at): 0.12
Mean log2 Expression Change ([1]; C17orf60 217513_at): 0.32
Mean log2 Expression Change ([1]; CHORDC1 218566_s_at): 0.15
Mean log2 Expression Change ([1]; CISH 221223_x_at): −0.20
Mean log2 Expression Change ([1]; CISH 223377_x_at): −0.18
Mean log2 Expression Change ([1]; CISH 223961_s_at): −0.32
Mean log2 Expression Change ([1]; COMMD8 218351_at): 0.16
Mean log2 Expression Change ([1]; COPS5 201652_at): 0.12
Mean log2 Expression Change ([1]; COX6C 201754_at): 0.12
Mean log2 Expression Change ([1]; CRYGS 223643_at): −0.18
Mean log2 Expression Change ([1]; ENSA 202596_at): 0.12
Mean log2 Expression Change ([1]; FLNA 214752_x_at): 0.18
Mean log2 Expression Change ([1]; FOSB 202768_at): −0.54
Mean log2 Expression Change ([1]; FUNDC1 235346_at): 0.13
Mean log2 Expression Change ([1]; GABARAPL1 208869_s_at): 0.20
Mean log2 Expression Change ([1]; HIST1H3B 208576_s_at): 0.40
Mean log2 Expression Change ([1]; HNRPC 200014_s_at): 0.11
Mean log2 Expression Change ([1]; HNRPC 212626_x_at): 0.16
Mean log2 Expression Change ([1]; K1AA1394 228984_at): −0.29
Mean log2 Expression Change ([1]; K1AA1754 225582_at): −0.14
Mean log2 Expression Change ([1]; KLHL7 223250_at): 0.09
Mean log2 Expression Change ([1]; LAP3 217933_s_at): 0.15
Mean log2 Expression Change ([1]; LAPTM4A 200673_at): 0.12
Mean log2 Expression Change ([1]; LOC400657 226924_at): 0.11
Mean log2 Expression Change ([1]; LOC643318 1557633_at): −0.29
Mean log2 Expression Change ([1]; LOC644250 230292_at): −0.34
Mean log2 Expression Change ([1]; LZTR2 1564423_a_at): −0.23
Mean log2 Expression Change ([1]; MGC61598 226499_at): −0.29
Mean log2 Expression Change ([1]; MRPL47 223480_s_at): 0.09
Mean log2 Expression Change ([1]; NMT1 201157_s_at): 0.12
Mean log2 Expression Change ([1]; NOLA1 219110_at): 0.11
Mean log2 Expression Change ([1]; NR4A1 202340_x_at): −0.79
Mean log2 Expression Change ([1]; NXT2 209628_at): 0.13
Mean log2 Expression Change ([1]; PDE4B 203708_at): −0.25
Mean log2 Expression Change ([1]; PDE4B 211302_s_at): −0.28
Mean log2 Expression Change ([1]; PDE4B 215671_at): −0.42
Mean log2 Expression Change ([1]; PSMA4 203396_at): 0.14
Mean log2 Expression Change ([1]; PSMA7 201114_x_at): 0.21
Mean log2 Expression Change ([1]; PSMB2 200039_s_at): 0.17
Mean log2 Expression Change ([1]; PSMB3 201400_at): 0.13
Mean log2 Expression Change ([1]; PSMB4 202243_s_at): 0.19
Mean log2 Expression Change ([1]; PSMB4 202244_at): 0.15
Mean log2 Expression Change ([1]; PSMB7 200786_at): 0.15
Mean log2 Expression Change ([1]; PSMC4 201252_at): 0.16
Mean log2 Expression Change ([1]; PSMC5 209503_s_at): 0.17
Mean log2 Expression Change ([1]; PSMD2 200830_at): 0.13
Mean log2 Expression Change ([1]; PSMD4 200882_s_at): 0.19
Mean log2 Expression Change ([1]; PSMD4 210460_s_at): 0.19
Mean log2 Expression Change ([1]; PSMD4 211609_x_at): 0.20
Mean log2 Expression Change ([1]; PSMD14 212296_at): 0.23
Mean log2 Expression Change ([1]; RBM33 238801_at): −0.26
Mean log2 Expression Change ([1]; RPL41 216215_s_at): −0.16
Mean log2 Expression Change ([1]; SLC25A14 204587_at): −0.10
Mean log2 Expression Change ([1]; SNRPD1 202690_s_at): 0.11
Mean log2 Expression Change ([1]; STAU2 229417_at): 0.22
Mean log2 Expression Change ([1]; STAU2 233909_at): −0.40
Mean log2 Expression Change ([1]; STX11 235670_at): −0.14
Mean log2 Expression Change ([1]; SUMO1 211069_s_at): 0.10
Mean log2 Expression Change ([1]; TAGAP 1552542_s_at): −0.19
Mean log2 Expression Change ([1]; TBC1D9 212960_at): −0.19
Mean log2 Expression Change ([1]; TMC8 236554_x_at): 0.24
Mean log2 Expression Change ([1]; TUBA6 209251_x_at): 0.12
Mean log2 Expression Change ([1]; UBPH 205687_at): 0.16
Mean log2 Expression Change ([1]; WIRE 212050_at): −0.10
Mean log2 Expression Change ([1]; ZNF710 213658_at): −0.12
Mean log2 Expression Change, Average ([1]; average of the Bad Genes): 0.13
Mean log2 Expression Change, Average ([1]; average of the Good Genes): −0.16
average expression decrease of the good genes from baseline to post-bortezomib ([1]; high-risk group): 1.22 fold
average expression increase of the bad genes from baseline to post-bortezomib ([1]; high-risk group): 1.21 fold
average expression decrease of the good genes from baseline to post-bortezomib ([1]; low-risk group): 1.09 fold
average expression increase of the bad genes from baseline to post-bortezomib ([1]; low-risk group): 1.07 fold
Mean log2 Expression Change ([1]; probeset 226399_at (no gene symbol)): 0.09
Mean log2 Expression Change ([1]; probeset 227524_at (no gene symbol)): −0.17
Mean log2 Expression Change ([1]; probeset 229388_at (no gene symbol)): 0.22
Mean log2 Expression Change ([1]; probeset 236986_at (no gene symbol)): −0.13
Mean log2 Expression Change ([1]; probeset 239082_at (no gene symbol)): −0.11
Mean log2 Expression Change ([1]; probeset 239343_at (chr12q23.3, no gene symbol)): 0.19
Mean log2 Expression Change ([1]; probeset 1561060_at (no gene symbol)): −0.27
proteasome gene expression change after short-term exposure (proteasome genes): hyper-activation of proteasome genes
proteasome proteins after bortezomib (proteasome proteins): up-regulation
